The target of one data set is Cytochrome P450 2D6 (Homo sapiens, UniProt P10635). Kind of data set: Inhibition of CYP2D6. In kind it is ADME.
The nature of data set [1]: Cytotoxicity against HFF cells. Format: cell-based. The conditions noted are these: human.
In data set [2] the test system is Human papillomavirus type 16. The data set is described as follows: Antiviral activity against Human papillomavirus 16 infected in human W12-20850 cells by hybrid capture method. In kind it is functional, organism-based. The conditions noted are these: Human papillomavirus 16, W12-20850.
Data set [3] concerns the target Voltage-gated inwardly rectifying potassium channel KCNH2 (Homo sapiens, UniProt Q12809).
Data set [4] in a line: Oral bioavailability in rat at 10 mg/kg. In kind it is ADME, organism-based. As to conditions: in vivo.
A short description of data set [5]: Half life in rat at 10 mg/kg. Details: dose 10 mg/kg. The conditions noted are these: in vivo. Format: ADME, organism-based.
Data set [6] can be described thus: Oral bioavailability in monkey at 5 mg/kg. Format: ADME, organism-based, Macaca mulatta. As to conditions: rhesus monkey, in vivo.
Data set [7] can be described thus: Half life in monkey at 5 mg/kg. In kind it is ADME, organism-based, Macaca mulatta. Details: dose 5 mg/kg. The conditions noted are these: rhesus monkey, in vivo.
The nature of data set [8]: Volume of distribution at steady state in rat at 2 mg/kg, iv. Details: dose 2 mg/kg, route intravenous. In kind it is ADME, organism-based. The conditions noted are these: in vivo, read-out: Vdss.
Data set [9] is described as follows: Oral bioavailability in dog at 5 mg/kg. In kind it is ADME, organism-based, Canis lupus familiaris. As to conditions: in vivo.
A short description of data set [10]: Clearance in rat at 2 mg/kg, iv. In kind it is ADME, organism-based. Details: dose 2 mg/kg, route intravenous. The conditions noted are these: in vivo.
Data set [11] can be described thus: Half life in dog at 5 mg/kg. Details: dose 5 mg/kg. In kind it is ADME, organism-based, Canis lupus familiaris. As to conditions: in vivo.
The nature of data set [12]: Volume of distribution at steady state in dog at 2 mg/kg, iv. Details: dose 2 mg/kg, route intravenous. In kind it is ADME, organism-based, Canis lupus familiaris. The conditions noted are these: in vivo, read-out: Vdss.
Data set [13] is described as follows: Clearance in dog at 2 mg/kg, iv. In kind it is ADME, organism-based, Canis lupus familiaris. Details: dose 2 mg/kg, route intravenous. The conditions noted are these: in vivo.
The nature of data set [14]: Clearance in monkey at 2 mg/kg, iv. In kind it is ADME, organism-based, Macaca mulatta. As to conditions: rhesus monkey, in vivo. Details: dose 2 mg/kg, route intravenous.
A short description of data set [15]: Volume of distribution at steady state in monkey at 2 mg/kg, iv. In kind it is ADME, organism-based, Macaca mulatta. Details: dose 2 mg/kg, route intravenous. The conditions noted are these: rhesus monkey, in vivo, read-out: Vdss.
Data set [16] is described as follows: Bioavailability in rat. In kind it is ADME, organism-based. The conditions noted are these: in vivo.

Chain of Cytochrome P450 2D6 (P10635 whole entry): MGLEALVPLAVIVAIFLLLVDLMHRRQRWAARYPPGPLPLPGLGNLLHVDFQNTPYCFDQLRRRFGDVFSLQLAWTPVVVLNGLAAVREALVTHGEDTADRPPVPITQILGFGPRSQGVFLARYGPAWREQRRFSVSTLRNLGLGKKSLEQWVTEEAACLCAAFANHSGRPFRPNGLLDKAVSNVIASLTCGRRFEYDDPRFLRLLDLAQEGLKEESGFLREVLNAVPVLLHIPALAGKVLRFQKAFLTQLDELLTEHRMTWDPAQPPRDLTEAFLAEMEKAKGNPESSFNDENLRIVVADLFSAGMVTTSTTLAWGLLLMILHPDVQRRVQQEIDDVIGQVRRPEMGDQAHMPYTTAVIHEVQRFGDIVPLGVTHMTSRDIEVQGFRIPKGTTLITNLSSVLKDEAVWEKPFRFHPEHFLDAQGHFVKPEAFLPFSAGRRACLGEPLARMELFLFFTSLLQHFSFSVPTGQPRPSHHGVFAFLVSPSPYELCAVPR
Chain of Voltage-gated inwardly rectifying potassium channel KCNH2 (Q12809 whole entry): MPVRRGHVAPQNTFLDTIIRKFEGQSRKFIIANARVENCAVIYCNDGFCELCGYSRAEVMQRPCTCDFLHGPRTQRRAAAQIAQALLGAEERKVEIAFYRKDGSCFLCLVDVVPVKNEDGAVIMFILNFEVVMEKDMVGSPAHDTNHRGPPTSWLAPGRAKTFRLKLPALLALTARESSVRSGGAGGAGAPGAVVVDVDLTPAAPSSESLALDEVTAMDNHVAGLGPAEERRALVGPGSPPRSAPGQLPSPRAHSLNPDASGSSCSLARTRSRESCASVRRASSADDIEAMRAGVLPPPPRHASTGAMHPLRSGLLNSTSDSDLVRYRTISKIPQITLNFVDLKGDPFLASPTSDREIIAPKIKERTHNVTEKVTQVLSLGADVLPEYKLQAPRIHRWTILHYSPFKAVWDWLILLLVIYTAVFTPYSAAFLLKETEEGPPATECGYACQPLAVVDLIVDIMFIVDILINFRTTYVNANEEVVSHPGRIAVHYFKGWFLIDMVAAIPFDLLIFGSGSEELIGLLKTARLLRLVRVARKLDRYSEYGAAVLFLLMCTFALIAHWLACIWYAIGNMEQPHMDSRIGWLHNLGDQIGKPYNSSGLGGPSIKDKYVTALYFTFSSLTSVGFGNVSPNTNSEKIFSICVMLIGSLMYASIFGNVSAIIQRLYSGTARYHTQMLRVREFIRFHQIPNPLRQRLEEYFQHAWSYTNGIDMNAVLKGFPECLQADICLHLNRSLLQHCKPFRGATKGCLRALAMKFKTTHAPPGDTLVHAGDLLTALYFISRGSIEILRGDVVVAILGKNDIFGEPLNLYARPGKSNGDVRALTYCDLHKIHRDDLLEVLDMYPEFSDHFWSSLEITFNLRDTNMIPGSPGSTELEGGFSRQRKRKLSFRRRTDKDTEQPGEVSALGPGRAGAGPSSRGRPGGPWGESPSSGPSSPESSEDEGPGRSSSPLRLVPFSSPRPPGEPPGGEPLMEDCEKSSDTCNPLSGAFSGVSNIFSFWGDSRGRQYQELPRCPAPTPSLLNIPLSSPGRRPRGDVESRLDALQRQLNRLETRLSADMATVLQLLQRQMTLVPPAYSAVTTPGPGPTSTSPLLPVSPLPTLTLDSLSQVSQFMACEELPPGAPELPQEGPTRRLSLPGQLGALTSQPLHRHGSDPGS

For the compound `C[C@@H](N[C@@H]1CCCc2c1[nH]c1ccc(Br)cc21)c1ccccc1`, at Cytochrome P450 2D6, half-maximal inhibition (IC50) required 160 nM.
Consider `O=C(NC1CCCc2c1[nH]c1ccc(Br)cc21)c1ccccc1` (stereo not given), for which the CC50 in data set [1] was more than 20 µM. For the same compound, half-maximal inhibition in [2] (IC50) required 30 nM.
In [1], `O=C(NC1CCCc2c1[nH]c1ccc(Br)cc21)OCc1ccccc1` (stereo not given) gave a CC50 of more than 20 µM. In [2], the IC50 is 45 nM.
The like results for `O=C(N[C@@H]1CCCc2c1[nH]c1ccc(Cl)cc21)c1ccccc1` were, in that order, 26 µM and 20 nM.
On to `O=C(N[C@@H]1CCCc2c1[nH]c1ccc(Cl)cc21)c1ccccc1F`, for which the CC50 in [1] was found to be 24 µM. The IC50 in data set [3] was more than 20 µM; at Cytochrome P450 2D6, more than 20000 nM; in data set [2] it was 8 nM.
The compound `O=C(N[C@H]1CCCc2c1[nH]c1ccc(Br)cc21)c1ccccc1` showed a CC50 in [1] of 52 µM. In data set [2], this compound showed an IC50 of 5700 nM.
As for `O=C(N[C@@H]1CCCc2c1[nH]c1ccc(Cl)cc21)c1ccccn1`, the bioavailability amounted to 56% in data set [4], 56% in data set [6] and 35% in [9]. Besides, the CC50 in data set [1] was found to be 16 µM. Besides, the half-life in data set [5] is 246 min; in data set [7], 216 min; in data set [11], 570 min. For the same compound, the Vd stood at 1.6 L/kg in data set [8], 1.7 L/kg in data set [12] and 0.13 L/kg in data set [15]. Also, the figures for the clearance in data set [10], in data set [13] and in data set [14] were 13.1 mL/min/kg, 5 mL/min/kg and 1.1 mL/min/kg, respectively. The same compound had an IC50 in data set [2] of 5 nM.
In data set [1], `Brc1ccc2[nH]c3c(c2c1)CCCC3Nc1ccccc1` (stereo not given) had a CC50 of 50.8 µM. In data set [16], this compound displayed a bioavailability of less than 5%. This compound also displayed an IC50 in data set [2] of 10 nM.
In [1], `O=C(NC1CCCc2c1[nH]c1ccc(Br)cc21)C1CCCCC1` (stereo not given) returned a CC50 of 50 µM. The IC50 in data set [2] turned out to be 400 nM.
The like results for `O=C(Cc1ccccc1)NC1CCCc2c1[nH]c1ccc(Br)cc21` (stereo not given) were, in that order, more than 50 µM and 580 nM.
For `CS(=O)(=O)NC1CCCc2c1[nH]c1ccc(Br)cc21` (stereo not given), in that order: more than 50 µM and 2260 nM.
The like results for `Cc1ccccc1C(=O)NC1CCCc2c1[nH]c1ccc(Br)cc21` (stereo not given) were, in that order, 40 µM and 500 nM.
In turn, `O=C(N[C@H]1CCCc2c1[nH]c1ccc(Cl)cc21)c1ccccc1` showed a CC50 in data set [1] of 55 µM. In addition, inhibition in data set [2] was half-maximal at 11300 nM (IC50).
`O=C(N[C@@H]1CCCc2c1[nH]c1ccc(Br)cc21)c1ccccc1` came in with a CC50 in data set [1] of 39 µM. In data set [2], the midpoint of inhibition, the IC50, lay at 8 nM.
The like results for `Brc1ccc2[nH]c3c(c2c1)CCCC3Nc1ccccn1` (stereo not given) were, in that order, 20.7 µM and 40 nM.
For `O=C(/C=C/c1ccccc1)NC1CCCc2c1[nH]c1ccc(Br)cc21` (stereo not given), in that order: more than 40 µM and 320 nM.
For the compound `Brc1ccc2[nH]c3c(c2c1)CCCC3Nc1ncccn1` (stereo not given), the midpoint of cytotoxicity in data set [1], the CC50, lay at 89.5 µM. In data set [2], it took 90 nM to reach half-maximal inhibition (IC50).
In the case of `O=C(CCc1ccccc1)NC1CCCc2c1[nH]c1ccc(Br)cc21` (stereo not given), in [1], the CC50 is more than 50 µM. The same compound gave a concentration for half-maximal inhibition (IC50) in [2] of 1200 nM.
As for `CC(=O)NC1CCCc2c1[nH]c1ccc(Br)cc21` (stereo not given), the 50% cytotoxic concentration (CC50) in data set [1] was more than 50 µM. The compound further came in with an IC50 in data set [2] of 12900 nM.
Consider `O=C(N[C@H]1CCCc2c1[nH]c1ccc(Cl)cc21)c1ccccc1F`, for which the CC50 in data set [1] worked out at 36 µM. In data set [2], this compound returned an IC50 of 2100 nM.
The like results for `Cc1ccc(S(=O)(=O)NC2CCCc3c2[nH]c2ccc(Br)cc32)cc1` (stereo not given) were, in that order, more than 20 µM and 24 nM.
In the case of `O=C(N[C@H]1CCCc2c1[nH]c1ccc(Cl)cc21)c1ccccn1`, in [1], the CC50 is 61 µM. In data set [2], the IC50 was 9000 nM.
The like results for `Cc1cccc(C(=O)NC2CCCc3c2[nH]c2ccc(Br)cc32)c1` (racemic) were, in that order, 41 µM and 24 nM.
The like results for `COc1cccc(C(=O)NC2CCCc3c2[nH]c2ccc(Br)cc32)c1` (racemic) were, in that order, 26 µM and 21 nM.
The like results for `O=C(NC1CCCc2c1[nH]c1ccc(Br)cc21)c1ccccn1` (racemic) were, in that order, 72 µM and 5 nM.
As for `COc1ccc(C(=O)NC2CCCc3c2[nH]c2ccc(Br)cc32)cc1` (racemic), the CC50 in data set [1] came to 88 µM. Besides, the IC50 in data set [2] came out at 17 nM.
The like results for `O=C(NC1CCCc2c1[nH]c1ccc(Br)cc21)c1cccnc1` (racemic) were, in that order, 100 µM and 190 nM.
The like results for `Cc1ccc(C(=O)NC2CCCc3c2[nH]c2ccc(Br)cc32)cc1` (racemic) were, in that order, 87 µM and 10 nM.
The like results for `O=C(NC1CCCc2c1[nH]c1ccc(Br)cc21)c1ccc(F)cc1` (racemic) were, in that order, 47 µM and 44 nM.
As for `O=C(NC1CCCc2c1[nH]c1ccc(Br)cc21)c1ccncc1` (racemic), the midpoint of cytotoxicity in [1], the CC50, lay at 100 µM. For the same compound, half-maximal inhibition in data set [2] (IC50) was put at 200 nM.
The like results for `O=C(NC1CCCc2c1[nH]c1ccc(Br)cc21)c1cccc(F)c1` (racemic) were, in that order, 65 µM and 18 nM.
For `COc1ccccc1C(=O)NC1CCCc2c1[nH]c1ccc(Br)cc21` (racemic), in that order: 100 µM and 21000 nM.
The like results for `O=C(NC1CCCc2c1[nH]c1ccc(Br)cc21)c1ccccc1F` (racemic) were, in that order, 49 µM and 8 nM.

Values taken from ChEMBL document CHEMBL1152400, “Tetrahydrocarbazole amides with potent activity against human papillomaviruses” (Bioorg Med Chem Lett, 2009).
